Data reported in patent publication US20070149535A1, “Protein kinase inhibitors” (ONCALIS AG, priority 2004, published 2007).

Columns and labels:
Assay in all cases: Yeast growth assay, specificity profiling;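 for EGFR (L858R) growth restoration: Parenthesized + marks a result obtained in a different yeast background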
Assay type in all cases: cell-based
EphB2 = target: T1, EphB2 (Homo sapiens, UniProt P29323); parameters: key: “−” indicates no growth restoration i.e. no activity against the particular kinase; “+”, “++”, and “+++” indicate activity detected by restoration of growth, classified into three categories of potency; “+”, “++”, and “+++” indicate activity detected by restoration of growth, classified into three categories of potency; “+”, “++”, and “+++” indicate activity detected by restoration of growth, classified into three categories of potency; details: 7 concentrations between 0.2 and 100 μM
T1 construct: expressed in transfected cells; host or cells: yeast
T1 sequence (P29323 19-1055): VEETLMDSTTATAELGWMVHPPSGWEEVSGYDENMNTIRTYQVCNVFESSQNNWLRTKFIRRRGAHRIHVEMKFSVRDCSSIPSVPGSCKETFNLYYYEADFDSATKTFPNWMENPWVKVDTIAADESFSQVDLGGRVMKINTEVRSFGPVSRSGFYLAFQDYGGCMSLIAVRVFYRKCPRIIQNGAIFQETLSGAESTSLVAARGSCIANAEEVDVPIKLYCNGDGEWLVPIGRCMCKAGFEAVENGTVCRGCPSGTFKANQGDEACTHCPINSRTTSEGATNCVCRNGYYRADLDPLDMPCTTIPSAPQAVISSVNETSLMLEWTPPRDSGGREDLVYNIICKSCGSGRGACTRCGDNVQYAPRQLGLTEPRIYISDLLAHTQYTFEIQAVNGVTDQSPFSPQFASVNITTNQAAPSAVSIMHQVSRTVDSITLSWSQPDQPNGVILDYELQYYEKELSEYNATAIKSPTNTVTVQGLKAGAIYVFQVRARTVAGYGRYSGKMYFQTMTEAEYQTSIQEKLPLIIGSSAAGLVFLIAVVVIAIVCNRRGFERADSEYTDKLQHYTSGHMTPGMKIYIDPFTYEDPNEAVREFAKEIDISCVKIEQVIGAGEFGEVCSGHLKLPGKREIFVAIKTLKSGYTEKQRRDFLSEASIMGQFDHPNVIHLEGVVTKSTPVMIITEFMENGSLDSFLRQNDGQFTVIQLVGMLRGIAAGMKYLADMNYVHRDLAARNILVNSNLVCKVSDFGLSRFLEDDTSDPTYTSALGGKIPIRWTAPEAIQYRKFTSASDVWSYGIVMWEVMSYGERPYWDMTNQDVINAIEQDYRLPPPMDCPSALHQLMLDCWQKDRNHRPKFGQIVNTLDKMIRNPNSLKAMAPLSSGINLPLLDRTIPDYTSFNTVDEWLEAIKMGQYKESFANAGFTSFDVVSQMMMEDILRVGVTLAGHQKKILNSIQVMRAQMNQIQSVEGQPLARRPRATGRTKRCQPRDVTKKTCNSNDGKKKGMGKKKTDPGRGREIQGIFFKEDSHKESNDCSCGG
Experimental: (§1) Specificity Profiling: Yeast Growth Assay
(§2) The yeast growth assay was performed as described in “Method for the identification and/or validation of receptor tyrosine kinase inhibitors” PCT/CH03/00694 (2004/10/24), section “Modes for Carrying out the Invention, Experiment 1 and Experiment 2.
(§3) Briefly, yeast cells carrying plasmids with the RTK of interest were grown in glucose containing medium (repressing expression). The cultures were diluted into galactose containing medium, which induces the expression of the kinase. Expression of the kinase inhibits growth of the yeast cells, which allows for positive selection of kinase inhibitors restoring growth of cells. Compounds were titrated at 7 concentrations between 0.2 and 100 μM.
(§4) Specificity profiling of compounds, using the yeast growth assay method described above. “−” indicates no growth restoration i.e. no activity against the particular kinase, “+”, “++”, and “+++” indicate activity detected by restoration of growth, classified into three categories of potency according to the maximal level of growth restoration reached and the concentration at which the maximal growth restoration is reached.

EphA2 = target: T2, EphA2 (Homo sapiens, UniProt P29317); parameters: key: “−” indicates no growth restoration i.e. no activity against the particular kinase; “+”, “++”, and “+++” indicate activity detected by restoration of growth, classified into three categories of potency; “+”, “++”, and “+++” indicate activity detected by restoration of growth, classified into three categories of potency; “+”, “++”, and “+++” indicate activity detected by restoration of growth, classified into three categories of potency; details: 7 concentrations between 0.2 and 100 μM
T2 construct: expressed in transfected cells; host or cells: yeast
Experimental: as §1, §2, §3, §4

EGFR (L858R) = target: T3, EGFR (L858R) (Homo sapiens, UniProt P00533, L858R); parameters: key: (+) in a different yeast background; details: in a different yeast background;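 note: Parenthesized + marks a result obtained in a different yeast background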
T3 construct: expressed in transfected cells; host or cells: yeast
Experimental: as §1, §2, §3, §4

CSF-1R = target: T4, CSF-1R (Homo sapiens, UniProt P07333); parameters: key: “−” indicates no growth restoration i.e. no activity against the particular kinase; “+”, “++”, and “+++” indicate activity detected by restoration of growth, classified into three categories of potency; “+”, “++”, and “+++” indicate activity detected by restoration of growth, classified into three categories of potency; “+”, “++”, and “+++” indicate activity detected by restoration of growth, classified into three categories of potency; details: 7 concentrations between 0.2 and 100 μM
T4 construct: expressed in transfected cells; host or cells: yeast
Experimental: as §1, §2, §3, §4

PDGFRb = target: T5, PDGFRb (Homo sapiens, UniProt P09619); parameters: key: “−” indicates no growth restoration i.e. no activity against the particular kinase; “+”, “++”, and “+++” indicate activity detected by restoration of growth, classified into three categories of potency; “+”, “++”, and “+++” indicate activity detected by restoration of growth, classified into three categories of potency; “+”, “++”, and “+++” indicate activity detected by restoration of growth, classified into three categories of potency; details: 7 concentrations between 0.2 and 100 μM
T5 construct: expressed in transfected cells; host or cells: yeast
Experimental: as §1, §2, §3, §4

FGFR-2 = target: T6, FGFR-2 (Homo sapiens, UniProt P21802); parameters: key: “−” indicates no growth restoration i.e. no activity against the particular kinase; “+”, “++”, and “+++” indicate activity detected by restoration of growth, classified into three categories of potency; “+”, “++”, and “+++” indicate activity detected by restoration of growth, classified into three categories of potency; “+”, “++”, and “+++” indicate activity detected by restoration of growth, classified into three categories of potency; details: 7 concentrations between 0.2 and 100 μM
T6 construct: expressed in transfected cells; host or cells: yeast
Experimental: as §1, §2, §3, §4

FGFR-3 = target: T7, FGFR-3 (Homo sapiens, UniProt P22607); parameters: key: “−” indicates no growth restoration i.e. no activity against the particular kinase; “+”, “++”, and “+++” indicate activity detected by restoration of growth, classified into three categories of potency; “+”, “++”, and “+++” indicate activity detected by restoration of growth, classified into three categories of potency; “+”, “++”, and “+++” indicate activity detected by restoration of growth, classified into three categories of potency; details: 7 concentrations between 0.2 and 100 μM
T7 construct: expressed in transfected cells; host or cells: yeast
Experimental: as §1, §2, §3, §4

T7 sequence (P22607 23-806): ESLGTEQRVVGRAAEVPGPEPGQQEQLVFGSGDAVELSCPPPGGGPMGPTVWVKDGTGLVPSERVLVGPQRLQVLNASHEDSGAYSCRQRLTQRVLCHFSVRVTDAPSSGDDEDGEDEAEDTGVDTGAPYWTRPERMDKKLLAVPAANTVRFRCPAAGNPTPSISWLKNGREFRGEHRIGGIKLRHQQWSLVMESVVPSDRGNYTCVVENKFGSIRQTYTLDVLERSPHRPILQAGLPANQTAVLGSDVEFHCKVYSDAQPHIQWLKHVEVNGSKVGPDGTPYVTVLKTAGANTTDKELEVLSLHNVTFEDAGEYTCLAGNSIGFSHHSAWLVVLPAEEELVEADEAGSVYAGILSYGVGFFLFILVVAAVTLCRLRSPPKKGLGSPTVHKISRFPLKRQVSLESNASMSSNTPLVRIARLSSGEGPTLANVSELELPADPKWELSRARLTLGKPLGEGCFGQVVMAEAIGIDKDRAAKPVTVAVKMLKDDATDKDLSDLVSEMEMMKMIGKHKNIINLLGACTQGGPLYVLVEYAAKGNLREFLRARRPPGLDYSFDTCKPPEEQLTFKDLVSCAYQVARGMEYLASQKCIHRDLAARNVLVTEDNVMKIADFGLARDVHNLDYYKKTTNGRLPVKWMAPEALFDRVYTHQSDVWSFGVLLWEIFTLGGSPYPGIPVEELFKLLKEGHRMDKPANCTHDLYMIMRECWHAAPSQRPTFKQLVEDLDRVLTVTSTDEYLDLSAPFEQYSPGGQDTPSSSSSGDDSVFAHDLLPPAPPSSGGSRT
T2 sequence (P29317 24-976): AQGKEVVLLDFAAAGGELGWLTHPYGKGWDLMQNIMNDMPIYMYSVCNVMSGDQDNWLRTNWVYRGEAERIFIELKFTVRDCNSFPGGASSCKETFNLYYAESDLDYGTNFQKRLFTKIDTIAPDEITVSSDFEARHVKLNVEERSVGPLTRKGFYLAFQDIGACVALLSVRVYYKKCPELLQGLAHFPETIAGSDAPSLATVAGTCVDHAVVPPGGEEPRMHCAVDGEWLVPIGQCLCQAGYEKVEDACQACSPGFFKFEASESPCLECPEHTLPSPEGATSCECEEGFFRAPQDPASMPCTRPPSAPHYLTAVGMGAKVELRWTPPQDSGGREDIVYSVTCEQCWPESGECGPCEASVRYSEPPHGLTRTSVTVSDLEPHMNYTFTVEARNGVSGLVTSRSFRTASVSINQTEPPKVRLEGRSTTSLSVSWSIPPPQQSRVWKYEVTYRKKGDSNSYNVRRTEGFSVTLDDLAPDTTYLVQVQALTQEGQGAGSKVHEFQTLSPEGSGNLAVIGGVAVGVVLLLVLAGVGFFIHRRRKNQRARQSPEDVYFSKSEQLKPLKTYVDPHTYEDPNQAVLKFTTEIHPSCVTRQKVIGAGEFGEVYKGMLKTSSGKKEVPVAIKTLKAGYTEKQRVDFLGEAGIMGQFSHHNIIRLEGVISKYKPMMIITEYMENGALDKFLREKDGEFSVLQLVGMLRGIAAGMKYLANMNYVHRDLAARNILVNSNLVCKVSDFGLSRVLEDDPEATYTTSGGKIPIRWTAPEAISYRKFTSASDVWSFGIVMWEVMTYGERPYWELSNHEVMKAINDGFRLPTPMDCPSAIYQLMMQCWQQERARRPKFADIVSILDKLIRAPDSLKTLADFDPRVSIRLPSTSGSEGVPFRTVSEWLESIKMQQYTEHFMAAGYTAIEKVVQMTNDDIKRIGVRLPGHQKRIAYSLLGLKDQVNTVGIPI
T6 sequence (P21802 22-821): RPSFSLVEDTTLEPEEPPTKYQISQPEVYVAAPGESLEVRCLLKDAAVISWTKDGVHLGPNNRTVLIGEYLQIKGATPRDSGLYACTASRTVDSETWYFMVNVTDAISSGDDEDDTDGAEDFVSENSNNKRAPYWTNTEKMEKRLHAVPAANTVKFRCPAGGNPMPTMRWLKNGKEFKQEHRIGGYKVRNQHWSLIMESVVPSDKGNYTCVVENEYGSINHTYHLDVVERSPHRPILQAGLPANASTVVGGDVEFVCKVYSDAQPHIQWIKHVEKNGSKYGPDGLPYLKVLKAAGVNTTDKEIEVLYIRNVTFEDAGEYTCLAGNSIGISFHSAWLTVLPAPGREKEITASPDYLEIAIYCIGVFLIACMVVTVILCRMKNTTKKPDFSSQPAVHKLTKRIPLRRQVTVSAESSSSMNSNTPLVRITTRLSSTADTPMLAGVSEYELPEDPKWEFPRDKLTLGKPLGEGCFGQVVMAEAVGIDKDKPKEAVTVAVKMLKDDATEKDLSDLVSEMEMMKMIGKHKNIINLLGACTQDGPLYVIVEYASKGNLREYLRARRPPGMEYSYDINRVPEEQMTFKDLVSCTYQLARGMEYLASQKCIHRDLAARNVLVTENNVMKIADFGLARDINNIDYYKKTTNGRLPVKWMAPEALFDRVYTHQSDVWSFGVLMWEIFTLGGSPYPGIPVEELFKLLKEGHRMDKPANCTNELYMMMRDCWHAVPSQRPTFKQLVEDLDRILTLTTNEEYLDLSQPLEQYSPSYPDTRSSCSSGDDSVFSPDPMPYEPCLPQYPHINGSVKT
T4 sequence (P07333 20-972): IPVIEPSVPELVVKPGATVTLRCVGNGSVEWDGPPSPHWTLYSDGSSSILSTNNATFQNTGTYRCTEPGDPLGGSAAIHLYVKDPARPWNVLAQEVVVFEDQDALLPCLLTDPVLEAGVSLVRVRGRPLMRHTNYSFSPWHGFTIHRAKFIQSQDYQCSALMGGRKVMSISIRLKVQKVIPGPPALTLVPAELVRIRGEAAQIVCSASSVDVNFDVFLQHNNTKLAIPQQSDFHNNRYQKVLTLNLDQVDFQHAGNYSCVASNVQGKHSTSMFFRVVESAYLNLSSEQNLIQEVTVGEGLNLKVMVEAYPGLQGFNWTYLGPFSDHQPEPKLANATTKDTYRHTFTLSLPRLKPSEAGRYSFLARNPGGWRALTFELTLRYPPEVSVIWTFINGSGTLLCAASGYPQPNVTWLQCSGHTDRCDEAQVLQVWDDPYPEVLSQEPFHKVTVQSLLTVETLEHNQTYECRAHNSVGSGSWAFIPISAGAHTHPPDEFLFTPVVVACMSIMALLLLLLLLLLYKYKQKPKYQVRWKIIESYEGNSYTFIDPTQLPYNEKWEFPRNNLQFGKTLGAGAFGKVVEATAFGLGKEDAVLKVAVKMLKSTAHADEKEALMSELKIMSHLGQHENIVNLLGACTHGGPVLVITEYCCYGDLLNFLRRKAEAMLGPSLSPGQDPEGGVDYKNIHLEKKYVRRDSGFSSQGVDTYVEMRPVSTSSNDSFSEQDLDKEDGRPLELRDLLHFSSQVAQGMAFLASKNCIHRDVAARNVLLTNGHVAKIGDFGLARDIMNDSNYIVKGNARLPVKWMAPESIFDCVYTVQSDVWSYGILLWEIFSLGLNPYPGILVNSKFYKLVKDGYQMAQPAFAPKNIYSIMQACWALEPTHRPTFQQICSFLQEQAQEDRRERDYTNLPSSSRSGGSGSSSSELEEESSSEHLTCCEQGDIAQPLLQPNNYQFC
T5 sequence (P09619 33-1106): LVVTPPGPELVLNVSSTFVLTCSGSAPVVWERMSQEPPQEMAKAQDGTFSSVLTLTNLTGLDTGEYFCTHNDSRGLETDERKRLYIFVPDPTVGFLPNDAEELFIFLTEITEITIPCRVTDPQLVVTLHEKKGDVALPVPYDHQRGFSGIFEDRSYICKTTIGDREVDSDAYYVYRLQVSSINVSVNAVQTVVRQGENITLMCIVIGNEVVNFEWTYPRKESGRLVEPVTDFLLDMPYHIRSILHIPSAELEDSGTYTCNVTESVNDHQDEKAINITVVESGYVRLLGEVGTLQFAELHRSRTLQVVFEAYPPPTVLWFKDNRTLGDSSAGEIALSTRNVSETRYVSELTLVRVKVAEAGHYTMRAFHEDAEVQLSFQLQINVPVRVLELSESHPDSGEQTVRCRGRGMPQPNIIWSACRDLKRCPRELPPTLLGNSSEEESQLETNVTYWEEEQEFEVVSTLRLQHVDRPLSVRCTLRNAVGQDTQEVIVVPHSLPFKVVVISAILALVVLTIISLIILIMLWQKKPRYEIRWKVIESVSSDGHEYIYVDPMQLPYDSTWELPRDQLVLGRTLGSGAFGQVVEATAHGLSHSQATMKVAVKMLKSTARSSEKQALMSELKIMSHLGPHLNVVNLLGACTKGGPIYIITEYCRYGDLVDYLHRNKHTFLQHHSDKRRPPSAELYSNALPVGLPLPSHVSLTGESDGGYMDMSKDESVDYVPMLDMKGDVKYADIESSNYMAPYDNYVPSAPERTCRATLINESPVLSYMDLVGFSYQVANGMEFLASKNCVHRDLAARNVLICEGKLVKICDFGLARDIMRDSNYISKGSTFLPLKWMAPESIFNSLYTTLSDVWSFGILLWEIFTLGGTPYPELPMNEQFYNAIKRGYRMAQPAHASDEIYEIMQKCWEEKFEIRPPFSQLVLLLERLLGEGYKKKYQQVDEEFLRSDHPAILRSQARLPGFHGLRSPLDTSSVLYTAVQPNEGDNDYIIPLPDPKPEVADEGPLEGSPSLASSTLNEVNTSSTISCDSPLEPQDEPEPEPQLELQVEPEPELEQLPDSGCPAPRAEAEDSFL

Row | EphB2 growth restoration (EphB2) | EphA2 growth restoration (EphA2) | EGFR (L858R) growth restoration (EGFR (L858R)) | CSF-1R growth restoration (CSF-1R) | PDGFRb growth restoration (PDGFRb) | FGFR-2 growth restoration (FGFR-2) | FGFR-3 growth restoration (FGFR-3) | SMILES
1 | ++ | + | (+) |  |  |  |  | CC(=O)Nc1ccc(-c2nc3cnccn3c2Nc2cccc(Cl)c2)cc1 [compound 8, N-{4-[3-(3-Chloro-phenylamino)-imidazo[1,2-a]pyrazin-2-yl]-phenyl}-acetamide]
2 | − | − |  |  |  |  |  | CNc1nccn2c(Nc3cccc(Cl)c3)c(-c3ccccc3)nc12 [compound 20, N′3-(3-Chloro-phenyl)-N′8-methyl-2-phenyl-imidazo[1,2-a]pyrazine-3,8-diamine]
3 | +++ | + | (+) |  |  |  |  | CC(=O)Nc1ccc(-c2nc3c(C)nccn3c2Nc2cccc(Cl)c2)cc1 [compound 33, N-{4-[3-(3-Chloro-phenylamino)-8-methyl-imidazo[1,2-a]pyrazin-2-yl]-phenyl}-acetamide]
4 | ++ | − |  | − | − | − | − | Cc1nccn2c(Nc3cccc(Cl)c3)c(-c3ccccc3)nc12 [compound 3, (3-Chloro-phenyl)-(8-methyl-2-phenyl-imidazo[1,2-a]pyrazin-3-yl)-amine]
5 | ++ | − |  | − | − | − | − | Cc1cccc(Nc2c(-c3ccccc3)nc3c(C)nccn23)c1 [compound 43, (8-Methyl-2-phenyl-imidazo[1,2-a]pyrazin-3-yl)-m-tolyl-amine]

The remaining lines, values behind:

Row | SMILES | EphB2 growth restoration (EphB2) | EphA2 growth restoration (EphA2) | EGFR (L858R) growth restoration (EGFR (L858R)) | CSF-1R growth restoration (CSF-1R) | PDGFRb growth restoration (PDGFRb) | FGFR-2 growth restoration (FGFR-2) | FGFR-3 growth restoration (FGFR-3)
6 | CC(C)c1nc2cnccn2c1Nc1cccc(Cl)c1 [compound 12, (3-Chloro-phenyl)-(2-isopropyl-imidazo[1,2-a]pyrazin-3-yl)-amine] | + | + | (+) |  |  |  | 
7 | Brc1cccc(Nc2c(-c3ccccc3)nc3cnccn23)c1 [compound 14, (3-Bromo-phenyl)-(2-phenyl-imidazo[1,2-a]pyrazin-3-yl)-amine] | − | − |  | − | − | − | −
8 | Cc1nccn2c(Nc3ccccc3)c(-c3ccccc3)nc12 [compound 39, (8-Methyl-2-phenyl-imidazo[1,2-a]pyrazin-3-yl)-phenyl-amine] | +++ | + |  | − | − | − | −
9 | c1ccc(Nc2c(-c3ccccc3)nc3cnccn23)cc1 [compound 23, Phenyl-(2-phenyl-imidazo[1,2-a]pyrazin-3-yl)-amine] | ++ | + |  | − | − | − | −
10 | COc1cccc(-c2nc3cnccn3c2Nc2cccc(Cl)c2)c1 [compound 7, (3-Chloro-phenyl)-[2-(3-methoxy-phenyl)-imidazo[1,2-a]pyrazin-3-yl]-amine] | − | − |  | − | − | − | −
11 | COc1cccc(-c2nc3c(C)nccn3c2Nc2cccc(C)c2)c1 [compound 42, [2-(3-Methoxy-phenyl)-8-methyl-imidazo[1,2-a]pyrazin-3-yl]-m-tolyl-amine] | +++ | + | (+) |  |  |  | 
12 | Clc1cccc(Nc2c(-c3ccccc3)nc3cnccn23)c1 [compound 35, (3-Chloro-phenyl)-(2-phenyl-imidazo[1,2-a]pyrazin-3-yl)-amine] | − | − |  | − | − | − | −
13 | Cc1cccc(Nc2c(-c3ccccc3)nc3cnccn23)c1 [compound 34, (2-Phenyl-imidazo[1,2-a]pyrazin-3-yl)-m-tolyl-amine] | − | − |  | − | − | − | −
14 | Cc1nccn2c(Nc3ccc(F)c(F)c3)c(-c3ccccc3)nc12 [compound 45, (3,4-Difluoro-phenyl)-(8-methyl-2-phenyl-imidazo[1,2-a]pyrazin-3-yl)-amine] | ++ | − |  | − | − | − | −
15 | Clc1ccc(Nc2c(-c3ccccc3)nc3cnccn23)cc1 [compound 16, (4-Chloro-phenyl)-(2-phenyl-imidazo[1,2-a]pyrazin-3-yl)-amine] | − | − |  | − | − | − | −
16 | Cc1nccn2c(Nc3cccc(F)c3)c(-c3ccccc3)nc12 [compound 44, (3-Fluoro-phenyl)-(8-methyl-2-phenyl-imidazo[1,2-a]pyrazin-3-yl)-amine] | +++ | − |  | − | − | − | −
